In the supplement of paper PMC10307832:

Tests used:
Assay in all cases: relative viability (nuclei count vs DMSO), 5 days (fraction); higher = more cells survive
H3255 = tested on: H3255
In short: (§1)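 Lung cancer cell lines in 1536-well plates were dosed by pin tool the day after seeding, either with one drug alone or with a fixed anchor-drug dose plus five library-drug doses (not always all listed) in √10 steps. After 5 days, cells were fixed and their nuclei stained in one step (final 0.05% Triton X-100, 1% formaldehyde, 1 ug/ml Hoechst), then counted on 4× images. Relative viability is the nuclei count in treated wells divided by that in vehicle wells. Values are medians of duplicate plates.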

PC-14 = tested on: PC-14
In short: as §1

LK-2 = tested on: LK-2
In short: as §1

NCI-H460 = tested on: NCI-H460
In short: as §1

LU99A = tested on: LU99A
In short: as §1

NCI-H2347 = tested on: NCI-H2347
In short: as §1

LC-2-ad = tested on: LC-2-ad
In short: as §1

SW 900 = tested on: SW 900
In short: as §1

COR-L23 = tested on: COR-L23
In short: as §1

LCLC-103H = tested on: LCLC-103H
In short: as §1

NCI-H1563 = tested on: NCI-H1563
In short: as §1

NCI-H23 = tested on: NCI-H23
In short: as §1

SW 1573 = tested on: SW 1573
In short: as §1

NCI-H596 = tested on: NCI-H596
In short: as §1

LCLC-97TM1 = tested on: LCLC-97TM1
In short: as §1

NCI-H2228 = tested on: NCI-H2228
In short: as §1

HCC-44 = tested on: HCC-44
In short: as §1

201T = tested on: 201T
In short: as §1

NCI-H727 = tested on: NCI-H727
In short: as §1

NCI-H1650 = tested on: NCI-H1650
In short: as §1

A-427 = tested on: A-427
In short: as §1

PC-3 [JPC-3] = tested on: PC-3 [JPC-3]
In short: as §1

NCI-H1793 = tested on: NCI-H1793
In short: as §1

## COc1nc(C)cnc1NS(=O)(=O)c1cccnc1-c1ccc(-c2nnco2)cc1 [Zibotentan] + CCNC(=O)c1noc(-c2cc(C(C)C)c(O)cc2O)c1-c1ccc(CN2CCOCC2)cc1 [Luminespib] (partner 0.01 µM)
H3255; first compound 0.08 µM
  relative viability: 0.996
H3255; first compound 0.253 µM
  relative viability: 0.839
H3255; first compound 0.8 µM
  relative viability: 0.899
H3255; first compound 2.53 µM
  relative viability: 0.799
PC-14; first compound 0.08 µM
  relative viability: 0.135
PC-14; first compound 0.8 µM
  relative viability: 0.151
PC-14; first compound 2.53 µM
  relative viability: 0.128
LK-2; first compound 0.08 µM
  relative viability: 0.216
LK-2; first compound 0.253 µM
  relative viability: 0.208
LK-2; first compound 0.8 µM
  relative viability: 0.168
LK-2; first compound 2.53 µM
  relative viability: 0.154
NCI-H460; first compound 0.08 µM
  relative viability: 0.036
NCI-H460; first compound 0.253 µM
  relative viability: 0.0258
NCI-H460; first compound 0.8 µM
  relative viability: 0.0276
NCI-H460; first compound 2.53 µM
  relative viability: 0.0332
LU99A; first compound 0.08 µM
  relative viability: 0.275
LU99A; first compound 0.253 µM
  relative viability: 0.242
LU99A; first compound 0.8 µM
  relative viability: 0.245
LU99A; first compound 2.53 µM
  relative viability: 0.243
NCI-H2347; first compound 0.253 µM
  relative viability: 0.382
NCI-H2347; first compound 0.8 µM
  relative viability: 0.426
NCI-H2347; first compound 2.53 µM
  relative viability: 0.452
LC-2-ad; first compound 0.08 µM
  relative viability: 1.25
LC-2-ad; first compound 0.8 µM
  relative viability: 1.32
LC-2-ad; first compound 2.53 µM
  relative viability: 1.06
SW 900; first compound 0.08 µM
  relative viability: 0.203
SW 900; first compound 0.253 µM
  relative viability: 0.174
SW 900; first compound 0.8 µM
  relative viability: 0.177
SW 900; first compound 2.53 µM
  relative viability: 0.172
COR-L23; first compound 0.08 µM
  relative viability: 0.879
COR-L23; first compound 0.253 µM
  relative viability: 0.656
COR-L23; first compound 0.8 µM
  relative viability: 0.719
COR-L23; first compound 2.53 µM
  relative viability: 0.667
LCLC-103H; first compound 0.08 µM
  relative viability: 0.913
LCLC-103H; first compound 0.253 µM
  relative viability: 0.682
LCLC-103H; first compound 0.8 µM
  relative viability: 0.982
LCLC-103H; first compound 2.53 µM
  relative viability: 0.927
NCI-H1563; first compound 0.08 µM
  relative viability: 0.474
NCI-H1563; first compound 0.253 µM
  relative viability: 0.499
NCI-H1563; first compound 0.8 µM
  relative viability: 0.552
NCI-H1563; first compound 2.53 µM
  relative viability: 0.559
NCI-H23; first compound 0.08 µM
  relative viability: 0.199
NCI-H23; first compound 0.8 µM
  relative viability: 0.231
NCI-H23; first compound 2.53 µM
  relative viability: 0.186
SW 1573; first compound 0.08 µM
  relative viability: 0.341
SW 1573; first compound 0.8 µM
  relative viability: 0.348
SW 1573; first compound 2.53 µM
  relative viability: 0.269
NCI-H596; first compound 0.08 µM
  relative viability: 1.02
NCI-H596; first compound 0.253 µM
  relative viability: 0.939
NCI-H596; first compound 0.8 µM
  relative viability: 1.16
NCI-H596; first compound 2.53 µM
  relative viability: 1.03
LCLC-97TM1; first compound 0.08 µM
  relative viability: 0.948
LCLC-97TM1; first compound 0.253 µM
  relative viability: 0.759
LCLC-97TM1; first compound 0.8 µM
  relative viability: 0.927
LCLC-97TM1; first compound 2.53 µM
  relative viability: 0.692
NCI-H2228; first compound 0.08 µM
  relative viability: 0.154
NCI-H2228; first compound 0.253 µM
  relative viability: 0.134
NCI-H2228; first compound 0.8 µM
  relative viability: 0.157
NCI-H2228; first compound 2.53 µM
  relative viability: 0.191
HCC-44; first compound 0.08 µM
  relative viability: 1.63
HCC-44; first compound 0.8 µM
  relative viability: 1.07
HCC-44; first compound 2.53 µM
  relative viability: 1.08
201T; first compound 0.08 µM
  relative viability: 1.11
201T; first compound 0.253 µM
  relative viability: 1.03
201T; first compound 0.8 µM
  relative viability: 1.14
201T; first compound 2.53 µM
  relative viability: 1.07
NCI-H727; first compound 0.08 µM
  relative viability: 0.289
NCI-H727; first compound 0.253 µM
  relative viability: 0.316
NCI-H727; first compound 0.8 µM
  relative viability: 0.83
NCI-H727; first compound 2.53 µM
  relative viability: 0.325
NCI-H1650; first compound 0.08 µM
  relative viability: 0.177
NCI-H1650; first compound 0.8 µM
  relative viability: 0.204
NCI-H1650; first compound 2.53 µM
  relative viability: 0.195
A-427; first compound 0.08 µM
  relative viability: 1.16
A-427; first compound 0.253 µM
  relative viability: 0.857
A-427; first compound 0.8 µM
  relative viability: 0.998
A-427; first compound 2.53 µM
  relative viability: 0.911
PC-3 [JPC-3]; first compound 0.08 µM
  relative viability: 0.692
PC-3 [JPC-3]; first compound 0.253 µM
  relative viability: 0.738
PC-3 [JPC-3]; first compound 0.8 µM
  relative viability: 0.774
PC-3 [JPC-3]; first compound 2.53 µM
  relative viability: 0.718
NCI-H1793; first compound 0.08 µM
  relative viability: 0.172
NCI-H1793; first compound 0.253 µM
  relative viability: 0.169
NCI-H1793; first compound 0.8 µM
  relative viability: 0.225
NCI-H1793; first compound 2.53 µM
  relative viability: 0.169
